Bridge positions count the residues as written; N and C are the ends. Square brackets hold non-standard residues; d marks the D form. Peptide text beside a SMILES is read from it. * marks the point of attachment. ξ: configuration not given here. Phe(4-CONH2) = NC(=O)c1ccc(C[C@H](N)C(=O)O)cc1; Phe(4-COOH) = N[C@@H](Cc1ccc(C(=O)O)cc1)C(=O)O; Bip = N[C@@H](Cc1ccc(-c2ccccc2)cc1)C(=O)O; Ala(2-furyl) = N[C@@H](Cc1ccco1)C(=O)O; Phe(3-Me) = Cc1cccc(C[C@H](N)C(=O)O)c1; Val(3-OH) = CC(C)(O)[C@H](N)C(=O)O; 4Pal = N[C@@H](Cc1ccncc1)C(=O)O; Cha = N[C@@H](CC1CCCCC1)C(=O)O; Thr(3ξ) = CC(O)[C@H](N)C(=O)O; Carboxymethyl = O=C(O)C*; Orn = NCCC[C@H](N)C(=O)O; Aun = NCCCCCCCCCCC(=O)O; Dab = NCC[C@H](N)C(=O)O; AEEA = NCCOCCOCC(=O)O

For the experiment, the target named is T1, PD-1/PD-L1 interaction (PE-labeled human PD-L1-Ig binding to Jurkat cell line over-expressing human PD-1) (Homo sapiens, UniProt Q15116).
T1 construct: expressed in transfected cells; host or cells: Jurkat
T1 sequence (Q15116 25-288): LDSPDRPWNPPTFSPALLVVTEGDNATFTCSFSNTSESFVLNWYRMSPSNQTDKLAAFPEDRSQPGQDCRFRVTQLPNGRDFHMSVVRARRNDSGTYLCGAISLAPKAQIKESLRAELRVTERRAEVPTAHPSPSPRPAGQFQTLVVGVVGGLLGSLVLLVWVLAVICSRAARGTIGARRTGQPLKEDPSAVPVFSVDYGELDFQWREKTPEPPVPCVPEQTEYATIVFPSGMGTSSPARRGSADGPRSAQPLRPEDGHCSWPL
As to the kind of experiment: Jurkat-PD-1 Cell Binding High-Content Screening Assay (CBA). The conditions noted are these: Jurkat cell line over-expressing human PD-1; PE-labeled PD-L1-Ig 20 nM final; read-out: Jurkat hPD1-PDL1 IC50. The experiment is classed as cell-based. The gist of the method: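 Binding of fluorescent PD-L1-Ig (phycoerythrin on Ig tag, 20 nM final, 1 h) measured by high-content imaging of fixed, Hoechst-counterstained Jurkat-hPD-1 cells. Compound added 2 h at 37° C beforehand, in DMEM with 10% fetal calf serum.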
Usually IC50 stands for the concentration that inhibits the measured activity by half. For `Cc1cccc(C[C@@H]2NC(=O)[C@H](CC(=O)O)NC(=O)[C@H](Cc3ccc(OCC(=O)O)cc3)NC(=O)[C@H](Cc3ccncc3)NC(=O)CSC[C@@H](C(=O)N[C@@H](CCN)C(=O)NCCCCCCCCCCC(=O)O)NC(=O)[C@H](CO)NC(=O)[C@H](C(C)(C)O)NC(=O)[C@H](CC3CCCCC3)NC(=O)[C@H](CCN)NC(=O)[C@@H](CC(C)C)NC(=O)[C@H](CCCN)NC(=O)[C@H](Cc3ccc(C(=O)O)cc3)NC(=O)[C@H](Cc3ccc(-c4ccccc4)cc3)NC(=O)[C@H](Cc3ccc(C(=O)O)cc3)NC2=O)c1` [Compound 3716] ({CH2CO}-[4Pal]Y(Carboxymethyl)D[Phe(3-Me)][Phe(4-COOH)][Bip][Phe(4-COOH)][Orn][dL][Dab][Cha][Val(3-OH)]SC[Dab][Aun]-OH; thioether N-14), the IC50 is 165 nM.

In the case of `Cc1cccc(C[C@@H]2NC(=O)[C@H](CC(=O)O)NC(=O)[C@H](Cc3ccc(OCC(=O)O)cc3)NC(=O)[C@H](Cc3ccncc3)NC(=O)CSC[C@@H](C(=O)N[C@@H](CCN)C(=O)NCCCCCCCCCCC(=O)O)NC(=O)[C@H](CO)NC(=O)[C@H](C(C)(C)O)NC(=O)[C@H](CC3CCCCC3)NC(=O)[C@H](CCN)NC(=O)[C@@H](CC(C)C)NC(=O)[C@H](CCCN)NC(=O)[C@H](Cc3ccc(O)cc3)NC(=O)[C@H](Cc3ccc(-c4ccccc4)cc3)NC(=O)[C@H](Cc3ccc(C(N)=O)cc3)NC2=O)c1` [Compound 3717] ({CH2CO}-[4Pal]Y(Carboxymethyl)D[Phe(3-Me)][Phe(4-CONH2)][Bip]Y[Orn][dL][Dab][Cha][Val(3-OH)]SC[Dab][Aun]-OH; thioether N-14), the IC50 came out at 5 nM.

For `Cc1cccc(C[C@@H]2NC(=O)[C@H](CC(=O)O)NC(=O)[C@H](Cc3ccc(OCC(=O)O)cc3)NC(=O)[C@H](C(C)O)NC(=O)CSC[C@@H](C(=O)N[C@@H](CCN)C(=O)NCCCCCCCCCCC(=O)O)NC(=O)[C@H](CO)NC(=O)[C@H](C(C)(C)O)NC(=O)[C@H](CC3CCCCC3)NC(=O)[C@H](CCN)NC(=O)[C@@H](CC(C)C)NC(=O)[C@H](CCCN)NC(=O)[C@H](Cc3ccc(O)cc3)NC(=O)[C@H](Cc3ccc(-c4ccccc4)cc3)NC(=O)[C@H](Cc3ccc(C(N)=O)cc3)NC2=O)c1` (stereo partly drawn) [Compound 3718] ({CH2CO}-[Thr(3ξ)]Y(Carboxymethyl)D[Phe(3-Me)][Phe(4-CONH2)][Bip]Y[Orn][dL][Dab][Cha][Val(3-OH)]SC[Dab][Aun]-OH; thioether N-14), the IC50 came out at 8.8 nM.

`Cc1cccc(C[C@@H]2NC(=O)[C@H](CC(=O)O)NC(=O)[C@H](Cc3ccc(OCC(=O)O)cc3)NC(=O)[C@H](Cc3ccco3)NC(=O)CSC[C@@H](C(=O)N[C@@H](CCN)C(=O)NCCCCCCCCCCC(=O)O)NC(=O)[C@H](CO)NC(=O)[C@H](C(C)(C)O)NC(=O)[C@H](CC3CCCCC3)NC(=O)[C@H](CCN)NC(=O)[C@@H](CC(C)C)NC(=O)[C@H](CCCN)NC(=O)[C@H](Cc3ccc(O)cc3)NC(=O)[C@H](Cc3ccc(-c4ccccc4)cc3)NC(=O)[C@H](Cc3ccc(C(N)=O)cc3)NC2=O)c1` [Compound 3719] ({CH2CO}-[Ala(2-furyl)]Y(Carboxymethyl)D[Phe(3-Me)][Phe(4-CONH2)][Bip]Y[Orn][dL][Dab][Cha][Val(3-OH)]SC[Dab][Aun]-OH; thioether N-14): the IC50 worked out at 29.8 nM.

Consider `Cc1cccc(C[C@@H]2NC(=O)[C@H](CC(=O)O)NC(=O)[C@H](Cc3ccc(OCC(=O)O)cc3)NC(=O)[C@H](C(C)O)NC(=O)CSC[C@@H](C(=O)N[C@@H](CCN)C(=O)NCCCCCCCCCCC(=O)O)NC(=O)[C@H](CO)NC(=O)[C@H](C(C)(C)O)NC(=O)[C@H](CC3CCCCC3)NC(=O)[C@H](Cc3cnc[nH]3)NC(=O)[C@@H](CC(C)C)NC(=O)[C@H](CCCN)NC(=O)[C@H](Cc3ccc(OCC(=O)O)cc3)NC(=O)[C@H](Cc3ccc(-c4ccccc4)cc3)NC(=O)[C@H](Cc3ccc(OCC(=O)O)cc3)NC2=O)c1` (stereo partly drawn) [Compound 3720] ({CH2CO}-[Thr(3ξ)]Y(Carboxymethyl)D[Phe(3-Me)]Y(Carboxymethyl)[Bip]Y(Carboxymethyl)[Orn][dL]H[Cha][Val(3-OH)]SC[Dab][Aun]-OH; thioether N-14), for which the IC50 was determined as 11.7 nM.

For the compound `Cc1cccc(C[C@@H]2NC(=O)[C@H](CC(=O)O)NC(=O)[C@H](Cc3ccc(OCC(=O)O)cc3)NC(=O)[C@H](Cc3ccncc3)NC(=O)CSC[C@@H](C(=O)N[C@@H](CCN)C(=O)NCCCCCCCCCCC(=O)O)NC(=O)[C@H](CO)NC(=O)[C@H](C(C)(C)O)NC(=O)[C@H](CC3CCCCC3)NC(=O)[C@H](Cc3cnc[nH]3)NC(=O)[C@@H](CC(C)C)NC(=O)[C@H](CCCN)NC(=O)[C@H](Cc3ccc(OCC(=O)O)cc3)NC(=O)[C@H](Cc3ccc(-c4ccccc4)cc3)NC(=O)[C@H](Cc3ccc(OCC(=O)O)cc3)NC2=O)c1` [Compound 3721] ({CH2CO}-[4Pal]Y(Carboxymethyl)D[Phe(3-Me)]Y(Carboxymethyl)[Bip]Y(Carboxymethyl)[Orn][dL]H[Cha][Val(3-OH)]SC[Dab][Aun]-OH; thioether N-14), the IC50 was found to be 18.4 nM.

For the compound `Cc1cccc(C[C@@H]2NC(=O)[C@H](CC(=O)O)NC(=O)[C@H](Cc3ccc(OCC(=O)O)cc3)NC(=O)[C@H](Cc3ccncc3)NC(=O)CSC[C@@H](C(=O)N[C@@H](CO)C(=O)NCCCCCCCCCCC(=O)O)NC(=O)[C@H](CO)NC(=O)[C@H](C(C)(C)O)NC(=O)[C@H](CC3CCCCC3)NC(=O)[C@H](Cc3cnc[nH]3)NC(=O)[C@@H](CC(C)C)NC(=O)[C@H](CCCN)NC(=O)[C@H](Cc3ccc(OCC(=O)O)cc3)NC(=O)[C@H](Cc3ccc(-c4ccccc4)cc3)NC(=O)[C@H](Cc3ccc(OCC(=O)O)cc3)NC2=O)c1` [Compound 3722] ({CH2CO}-[4Pal]Y(Carboxymethyl)D[Phe(3-Me)]Y(Carboxymethyl)[Bip]Y(Carboxymethyl)[Orn][dL]H[Cha][Val(3-OH)]SCS[Aun]-OH; thioether N-14), the IC50 was 41.2 nM.

For `Cc1cccc(C[C@@H]2NC(=O)[C@H](CC(=O)O)NC(=O)[C@H](Cc3ccc(OCC(=O)O)cc3)NC(=O)[C@H](C(C)O)NC(=O)CSC[C@@H](C(=O)N[C@@H](CO)C(=O)NCCCCCCCCCCC(=O)O)NC(=O)[C@H](CO)NC(=O)[C@H](C(C)(C)O)NC(=O)[C@H](CC3CCCCC3)NC(=O)[C@H](Cc3cnc[nH]3)NC(=O)[C@@H](CC(C)C)NC(=O)[C@H](CCCN)NC(=O)[C@H](Cc3ccc(OCC(=O)O)cc3)NC(=O)[C@H](Cc3ccc(-c4ccccc4)cc3)NC(=O)[C@H](Cc3ccc(OCC(=O)O)cc3)NC2=O)c1` (stereo partly drawn) [Compound 3723] ({CH2CO}-[Thr(3ξ)]Y(Carboxymethyl)D[Phe(3-Me)]Y(Carboxymethyl)[Bip]Y(Carboxymethyl)[Orn][dL]H[Cha][Val(3-OH)]SCS[Aun]-OH; thioether N-14), the IC50 amounted to 84.1 nM.

For the compound `Cc1cccc(C[C@@H]2NC(=O)[C@H](CC(=O)O)NC(=O)[C@H](Cc3ccc(OCC(=O)O)cc3)NC(=O)[C@H](CCN)NC(=O)CSC[C@@H](C(=O)N[C@@H](CO)C(=O)NCCCCCCCCCCC(=O)O)NC(=O)[C@H](CO)NC(=O)[C@H](C(C)(C)O)NC(=O)[C@H](CC3CCCCC3)NC(=O)[C@H](Cc3cnc[nH]3)NC(=O)[C@@H](CC(C)C)NC(=O)[C@H](CCCN)NC(=O)[C@H](Cc3ccc(OCC(=O)O)cc3)NC(=O)[C@H](Cc3ccc(-c4ccccc4)cc3)NC(=O)[C@H](Cc3ccc(OCC(=O)O)cc3)NC2=O)c1` [Compound 3724] ({CH2CO}-[Dab]Y(Carboxymethyl)D[Phe(3-Me)]Y(Carboxymethyl)[Bip]Y(Carboxymethyl)[Orn][dL]H[Cha][Val(3-OH)]SCS[Aun]-OH; thioether N-14), the IC50 is 73.9 nM.

For `Cc1cccc(C[C@@H]2NC(=O)[C@H](CC(=O)O)NC(=O)[C@H](Cc3ccc(OCC(=O)O)cc3)NC(=O)[C@H](CCN)NC(=O)CSC[C@@H](C(=O)N[C@@H](CO)C(=O)NCCCCCCCCCCC(=O)O)NC(=O)[C@H](C(C)O)NC(=O)[C@H](C(C)(C)O)NC(=O)[C@H](CC3CCCCC3)NC(=O)[C@H](CCN)NC(=O)[C@@H](CC(C)C)NC(=O)[C@H](CCCN)NC(=O)[C@H](Cc3ccc(O)cc3)NC(=O)[C@H](Cc3ccc(-c4ccccc4)cc3)NC(=O)[C@H](Cc3ccc(C(N)=O)cc3)NC2=O)c1` (stereo partly drawn) [Compound 3725] ({CH2CO}-[Dab]Y(Carboxymethyl)D[Phe(3-Me)][Phe(4-CONH2)][Bip]Y[Orn][dL][Dab][Cha][Val(3-OH)][Thr(3ξ)]CS[Aun]-OH; thioether N-14), the IC50 is 30.5 nM.

Consider `Cc1cccc(C[C@@H]2NC(=O)[C@H](CC(=O)O)NC(=O)[C@H](Cc3ccc(OCC(=O)O)cc3)NC(=O)[C@H](Cc3ccncc3)NC(=O)CSC[C@@H](C(=O)N[C@@H](CO)C(=O)NCCCCCCCCCCC(=O)O)NC(=O)[C@H](C(C)O)NC(=O)[C@H](C(C)(C)O)NC(=O)[C@H](CC3CCCCC3)NC(=O)[C@H](CCN)NC(=O)[C@@H](CC(C)C)NC(=O)[C@H](CCCN)NC(=O)[C@H](Cc3ccc(O)cc3)NC(=O)[C@H](Cc3ccc(-c4ccccc4)cc3)NC(=O)[C@H](Cc3ccc(C(N)=O)cc3)NC2=O)c1` (stereo partly drawn) [Compound 3726] ({CH2CO}-[4Pal]Y(Carboxymethyl)D[Phe(3-Me)][Phe(4-CONH2)][Bip]Y[Orn][dL][Dab][Cha][Val(3-OH)][Thr(3ξ)]CS[Aun]-OH; thioether N-14), for which the concentration for half-maximal inhibition (IC50) came out at 13.1 nM.

Regarding `Cc1cccc(C[C@@H]2NC(=O)[C@H](CC(=O)O)NC(=O)[C@H](Cc3ccc(OCC(=O)O)cc3)NC(=O)[C@H](CCN)NC(=O)CSC[C@@H](C(=O)NCCOCCOCC(=O)NCCCCCCCCCCC(=O)O)NC(=O)[C@H](C(C)O)NC(=O)[C@H](C(C)(C)O)NC(=O)[C@H](CC3CCCCC3)NC(=O)[C@H](CCN)NC(=O)[C@@H](CC(C)C)NC(=O)[C@H](CCCN)NC(=O)[C@H](Cc3ccc(O)cc3)NC(=O)[C@H](Cc3ccc(-c4ccccc4)cc3)NC(=O)[C@H](Cc3ccc(C(N)=O)cc3)NC2=O)c1` (stereo partly drawn) [Compound 3727] ({CH2CO}-[Dab]Y(Carboxymethyl)D[Phe(3-Me)][Phe(4-CONH2)][Bip]Y[Orn][dL][Dab][Cha][Val(3-OH)][Thr(3ξ)]C[AEEA][Aun]-OH; thioether N-14), the IC50 was 50.4 nM.

The values above are taken from patent US20260022142A1, “MACROCYCLIC IMMUNOMODULATORS” (Bristol-Myers Squibb Company, priority 2022, published 2026).
